The text below walks through data of patent publication US4845219A, “Nitrogen- and sulfur-containing lipid compounds their production and use” (Takeda Chemical Industries, Ltd., priority 1986, dated 1989).

Where a name gives a salt, the structure may show the parent alone.

In series [1] the test system is platelet aggregation by PAF, washed PRP. Briefly: PAF inhibiting activity in platelet aggregation (Test Example 4). The class given is cell-based. The following applies: Oryctolagus cuniculus, PAF 3×10^-7 M, rabbit washed PRP, 37° C., relative to maximum aggregation of control PRP by PAF, read-out: Inhibiting Ratio; for inhibition at 30 µM: medicine concentration 3 × 10^-5 M; for inhibition at 3 µM: medicine concentration 3 × 10^-6 M. The protocol: Using a syringe containing 3.15% citric acid (1 part per 9 parts of blood) as a blood coagulation inhibitor, blood was taken from male rabbit. The blood was then centrifuged at 1000 rpm at room temperature for 10 minutes to obtain a platelet rich plasma (PRP). This PRP was further centrifuged at 1400 rpm for 15 minutes to obtain a platelet pellet. The pellet was suspended in Ca^++ -free Tyrode containing 0.25% gelatin to obtain washed PRP. This PRP (250 μl) was stirred at 37° C. for 2 minutes, to which was then added 25 μl of a 0.2-0.5 mM Ca^++ solution. After this mixture had been stirred for 30 seconds, a medicine to be tested was added thereto. After 2 minutes stirring, 3×10^-7 M of PAF was added to the mixture. Pellet aggregation was measured by means of a platelet aggregometer (manufactured by Rika Denki, Japan). The activity of the test samples was determined in terms of an inhibiting ratio relative to the maximum transmittance (maximum aggregation ratio) of control PRP by PAF.

Another series concerns Sarcoma 180 cells. Briefly: Life-span prolongation of Sarcoma 180-inoculated ICR mice (Test Example 1). The conditions noted are these: Sarcoma 180 1×10^5 cells/mouse i.p.; for Life-Span Prolongation Ratio (T/C, %): 0.33 mg/mouse i.p. three times (1 hour, 1 day, 2 days after inoculation), only mice of survival days less than 60 days, control = 100; for 60th day: No. of survivors/No. of tested mice: 0.33 mg/mouse i.p. three times, control 0/5. The class given is in vivo. The protocol: ICR mice (a group consisting of five mice) were inoculated intraperitoneally with 1×10^5 Sarcoma 180 cells per mouse, and then given intraperitoneally 0.33 mg/mouse of the compound prepared in the present invention dissolved in physiological saline, three times in total, 1 hour, 1 day and 2 days after the inoculation. Also, the control compound [III] was given to mice under the same conditions. Shown in Table 1 are the life-span prolongation ratio against the control group not treated with drug (only related to mice of survival days less than 60 days) and the number of survived mice on the 60th day after the initiation of the test.

For series [2], the system named is human myelogenic leukaemia cells HL-60. Briefly: Proliferation inhibiting activity against HL-60 (Test Example 3). The class given is cell-based. The conditions noted are these: HL-60 cells, read-out: Inhibitory concentration against HL-60 (IC50, μg/ml). How it is done:
Proliferation inhibiting activity (IC50) of the compound of the present invention againsts human myelogenic leukaemia cells HL-60 was measured according to the method of R. Gallo et al [Blood, vol.

In the next series the test system is platelets. The following applies: literature; cited from earlier work.
For the next series, the system named is MM46 cells. Briefly: Life-span prolongation of MM46-inoculated C3H/He mice (Test Example 2). The class given is in vivo. The conditions noted are these: MM46 1×10^4 cells/mouse i.p.; for Life-Span Prolongation Ratio (T/C, %): 0.25 mg/mouse i.p. for consecutive 4 days from second day after inoculation, only mice of survival days less than 60 days, control = 100; for No. of survivors/No. of tested mice: 0.25 mg/mouse i.p. for consecutive 4 days, 60th day, control 0/5. How it is done: C3H/He mice (a group consisting of five mice) were inoculated intraperitoneally with 1×10^4 MM46 cells per mouse, and each mouse was intraperitoneally given 0.25 mg of drug for consecutive 4 days, starting from the second day after the inoculation. Shown in Table 2 are the life-span prolongation ratio ragarding the died mice in the group treated with drug against those in the control group not treated with drug (only related to mice of survival days less than 60 days) and the number of survived mice on the 60th day after the inoculation of MM46.

A further series has as its system tumor cells. The following applies: compound [III], literature; cited from earlier work.
The conditions of series [3]: literature; cited from earlier work.

On to `CCCCCCCCCCCCCCCCCCNC(=O)OCC(CS(=O)(=O)CCC[n+]1ccccc1)OC` (centres unmarked) [Example 46, N-[3-((2-Methoxy-3-octadecylcarbamoyloxypropyl)sulfonyl)propyl]-pyridinium mesylate], for which, in series [1], the inhibition at 30 µM turned out to be 100% and the inhibition at 3 µM worked out at 100%.
Take `CCCCCCCCCCCCCCCCCCOCC(CS(=O)(=O)CCCCCC[N+](C)(C)C)OC.CS(=O)(=O)[O-]` (centres unmarked) [Example 31, 6-[(2-methoxy-3-octadecyloxypropyl)sulfonyl]hexyltrimethylammonium mesylate]: in the series on Sarcoma 180 cells, the “Life-Span Prolongation Ratio (T/C, %)” value is listed as 273% and the “60th day: No. of survivors/No. of tested mice” value is recorded as 0/5. Further, in series [1], the inhibition at 30 µM is 100% and the inhibition at 3 µM came out at 100%. For the same compound, in series [2], the IC50 was 5 µg/mL.
As to `CCCCCCCCCCCCCCCCCCOCC(COP(=O)([O-])OCC[N+](C)(C)C)OC` (centres unmarked) [Compound [III], reference compound], in the series with Sarcoma 180 cells, the “Life-Span Prolongation Ratio (T/C, %)” value is on record as 162% and the “60th day: No. of survivors/No. of tested mice” value was 0/5. Besides, the “platelet activating / aggregating activity” value in the series with platelets is listed as “platelet activating property”. Besides, in the series on MM46 cells, the “Life-Span Prolongation Ratio (T/C, %)” value stood at 155% and the “No. of survivors/No. of tested mice” value is listed as 0/5. Further, the “anti-tumor activity” value in the series with tumor cells is on record as “anti-tumor activity”. In series [3], the “hypotensive and other side-effect activity” value is “hypotensive activity and local stimulating activity”.
Regarding `CCCCCCCCCCCCCCCCCCOCC(CCS(=O)(=O)CCC[n+]1ccccc1)OC.CS(=O)(=O)[O-]` (centres unmarked) [Example 47, N-[3-((3-Methoxy-4-octadecyloxybutyl)sulfonyl)propyl]pyridinium mesylate], in series [1], the inhibition at 30 µM amounted to 100% and the inhibition at 3 µM was found to be 73%. Further, the IC50 in series [2] is 1.25 µg/mL.
For `CCCCCCCCCCCCCCCCCCOCC(CS(=O)(=O)CCC[n+]1ccccc1)OC` (centres unmarked) [Example 45, N[3-((2-Methoxy-3-octadecyloxypropyl)sulfony)propyl]pyridinium mesylate], in series [1], the inhibition at 30 µM is 100% and the inhibition at 3 µM was 82%. The IC50 in series [2] is 1.25 µg/mL.
The matching figures for `CCCCCCCCCCCCCCCCCCOCC(CCS(=O)(=O)CCC[n+]1ccsc1)OC.CS(=O)(=O)[O-]` (centres unmarked) [Example 48, N-[3-((3-Methoxy-4-octadecyloxybutyl)sulfonyl)propyl]thiazolium mesylate]: 100%, 65% and 2.5 µg/mL.
Turning to `CCCCCCCCCCCCCCCCCCOCC(CC[S+]([O-])CCC[N+](C)(C)C)OC.CS(=O)(=O)[O-]` (centres unmarked) [Example 37, 3-[(3-methoxy-4-octadecyloxybutyl)sulfinyl]propyltrimethylammonium mesylate], in the series on Sarcoma 180 cells, the “Life-Span Prolongation Ratio (T/C, %)” value stood at 326% and the “60th day: No. of survivors/No. of tested mice” value is recorded as 0/5. In addition, the IC50 in series [2] was 2.5 µg/mL.
As for `CCCCCCCCCCCCCCCCCCOCC(CSCCC[N+](C)(C)C)OC.CS(=O)(=O)[O-]` (centres unmarked) [Example 38, 3-[(2-methoxy-3-octadecyloxypropyl)thio]propyltrimethylammonium mesylate], in series [2], the IC50 was found to be 5 µg/mL.
Turning to `CCCCCCCCCCCCCCCCCCOCC(CCS(=O)(=O)CCC[N+](C)(C)C)OC.CS(=O)(=O)[O-]` (centres unmarked) [Example 36, 3-[(3-methoxy-4-octadecyloxybutyl)sulfonyl]propyltrimethylammonium mesylate], in the series with Sarcoma 180 cells, the “Life-Span Prolongation Ratio (T/C, %)” value is on record as 242% and the “60th day: No. of survivors/No. of tested mice” value is 1/5. Besides, in series [2], the IC50 is 2.5 µg/mL.
As to `CCCCCCCCCCCCCCCCCCOCC(CS(=O)(=O)CCC[N+](C)(C)C)OC.CS(=O)(=O)[O-]` (centres unmarked) [Example 30, 3-[(2-methoxy-3-octadecyloxypropyl)sulfonyl]propyltrimethylammonium mesylate], in the series on Sarcoma 180 cells, the “Life-Span Prolongation Ratio (T/C, %)” value stood at 350% and the “60th day: No. of survivors/No. of tested mice” value is 0/5. Also, in the series on MM46 cells, the “Life-Span Prolongation Ratio (T/C, %)” value was determined as 225% and the “No. of survivors/No. of tested mice” value is 4/5. Also, the IC50 in series [2] amounted to 1.25 µg/mL.
